# pIC50: −log10 of the molar value.
# Molecular target: Programmed cell death protein 1/Programmed cell death 1 ligand 1 (Homo sapiens, UniProt Q9NZQ7)
# Assay: Inhibition of human PD1/PDL1 protein-protein interaction by HTRF assay
# Type: protein-complex assay
# Chain of Programmed cell death protein 1/Programmed cell death 1 ligand 1 (Q15116 whole entry): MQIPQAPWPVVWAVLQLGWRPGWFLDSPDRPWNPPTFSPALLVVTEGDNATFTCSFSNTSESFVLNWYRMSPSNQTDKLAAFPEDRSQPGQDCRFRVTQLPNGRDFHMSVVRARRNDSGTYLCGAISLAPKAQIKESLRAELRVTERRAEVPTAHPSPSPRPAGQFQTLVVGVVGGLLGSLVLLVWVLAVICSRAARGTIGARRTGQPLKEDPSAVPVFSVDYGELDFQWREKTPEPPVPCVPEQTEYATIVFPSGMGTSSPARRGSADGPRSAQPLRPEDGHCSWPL
# Chain of Programmed cell death protein 1/Programmed cell death 1 ligand 1 (Q9NZQ7 whole entry): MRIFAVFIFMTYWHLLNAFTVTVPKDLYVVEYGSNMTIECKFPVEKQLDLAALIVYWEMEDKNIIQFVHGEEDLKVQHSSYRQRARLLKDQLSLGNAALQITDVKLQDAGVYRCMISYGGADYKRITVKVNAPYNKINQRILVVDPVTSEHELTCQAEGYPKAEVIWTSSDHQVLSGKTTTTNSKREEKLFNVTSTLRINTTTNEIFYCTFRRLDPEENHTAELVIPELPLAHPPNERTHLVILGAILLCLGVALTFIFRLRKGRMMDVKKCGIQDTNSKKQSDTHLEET
row,Structure (SMILES),pIC50
1,Cc1c(COc2cc(OCc3cccc(C#N)c3)c(CNCCNC(=O)OC(C)(C)C)cc2Cl)cccc1-c1ccc2c(c1)OCCO2,7.25
2,Cc1c(COc2cc(OCc3cccc(C#N)c3)c(CN3CCN(CC4CC4)CC3)cc2Cl)cccc1-c1ccc2c(c1)OCCO2,< 6.00
3,Cc1c(-c2ccccc2)cccc1-c1cc(=O)c2cc(CN3CCN(CC4CC4)CC3)ccc2o1,< 5.00
4,Cc1c(COc2cc(OCc3cccc(C#N)c3)c(CN3C[C@H](O)[C@@H](F)C3)cc2Cl)cccc1-c1ccc2c(c1)OCCO2,< 7.00
5,CCN1CCN(Cc2ccc(O)c(C(=O)/C=C/c3cccc(-c4ccccc4)c3C)c2)CC1,4.84
6,Cc1c(COc2cc(OCc3cccc(C#N)c3)c(CN3CCCC[C@@H]3C(=O)O)cc2Cl)cccc1-c1ccncc1,< 7.00
7,Cc1c(COc2cc(OCc3cccc(C#N)c3)c(CNCC(=O)O)cc2Cl)cccc1-c1ccc2c(c1)OCCO2,< 7.00
8,CC(=O)N1CCN(Cc2ccc3oc(-c4cccc(-c5ccccc5)c4)cc(=O)c3c2)CC1,< 5.00
9,Cc1c(COc2cc(OCc3cccc(C#N)c3)c(CN3CCCC[C@H]3C(=O)O)cc2Cl)cccc1-c1cccnc1,< 7.00
10,Cc1c(COc2ccc3cc(CNC(C)(C)C(=O)O)ccc3c2)cccc1-c1ccc2c(c1)OCCO2,< 5.00
11,Cc1c(COc2cc(OCc3cccc(C#N)c3)c(CN3CCN(C4CC4)CC3)cc2Cl)cccc1-c1ccc2c(c1)OCCO2,6.39
12,Cc1c(-c2ccccc2)cccc1-c1cc(=O)c2cc(CN3CCNCC3)ccc2o1,< 5.00
13,Cc1c(COc2cc(OCc3cccc(C#N)c3)c(CN3C[C@@H](O)C[C@H]3C(=O)O)cc2Cl)cccc1-c1cccnc1,< 7.00
14,CC(=O)NCCNCc1ccc(O)c(C(=O)/C=C/c2cccc(-c3ccccc3)c2C)c1,5.28
15,Cc1c(COc2cc(OCc3cccc(C#N)c3)c(CNCC(=O)O)cc2Cl)cccc1-c1ccccc1,7.00 to 8.00
16,c1cc2c(cc1[C@H]1OC[C@H]3[C@@H]1CO[C@@H]3c1ccc3c(c1)OCO3)OCO2 [SESAMIN],< 4.00
17,Cc1c(COc2cc(OCc3cccc(C#N)c3)c(CN3CC[C@H](O)C3)cc2Cl)cccc1-c1ccc2c(c1)OCCO2,7.56
18,Cc1c(COc2cc(OCc3cccc(C#N)c3)c(CN3CC(O)C3)cc2Cl)cccc1-c1ccccc1,< 7.00
19,Cc1c(COc2cc(OCc3cccc(C#N)c3)c(CN3CCCC[C@H]3C(=O)O)cc2Cl)cccc1-c1cncnc1,< 7.00
20,Cc1c(COc2cc(OCc3cccc(C#N)c3)c(CNCCN(C)C)cc2Cl)cccc1-c1ccccc1,7.00 to 8.00

row,Structure (SMILES),pIC50
1,CC(=O)N1CCN(Cc2ccc(O)c(C(=O)/C=C/c3cccc(-c4ccccc4)c3)c2)CC1,< 4.70
2,Cc1c(COc2cc(OCc3cccc(C#N)c3)c(CN[C@@H](C(=O)O)[C@H](C)O)cc2Cl)cccc1-c1ccncc1,< 7.00
3,Cc1c(COc2cc(OCc3cccc(C#N)c3)c(CN3C[C@@H](O)C[C@@H]3CO)cc2Cl)cccc1-c1ccccc1,7.00 to 8.00
4,Cc1c(COc2cc(OCc3cccc(C#N)c3)c(CN3CCCCC3C(=O)O)cc2Cl)cccc1-c1ccncc1 (stereo not drawn),< 7.00
5,Cc1c(COc2ccc3cc(CN[C@@H](CO)C(=O)O)ccc3c2)cccc1-c1ccc2c(c1)OCCO2,< 5.00
6,Cc1c(COc2ccc3cc(CNC(C)(C)C(=O)O)ccc3c2)cccc1-c1ccccc1,< 5.00
7,Cc1c(COc2cc(OCc3cccc(C#N)c3)c(CN3C[C@@H](O)C[C@H]3C(=O)O)cc2Cl)cccc1-c1cncnc1,< 7.00
8,Cc1c(/C=C/C(=O)c2cc(CN3CCNCC3)ccc2O)cccc1-c1ccccc1,< 4.70
9,CC(=O)N1CCN(Cc2cc(Cl)c(OCc3cccc(-c4ccc5c(c4)OCCO5)c3C)cc2OCc2cccc(C#N)c2)CC1,6.39
10,Cc1c(COc2cc(OCc3cccc(C#N)c3)c(CN3CC[C@H](O)C3)cc2Cl)cccc1-c1ccccc1,7.00 to 8.00
11,Cc1c(COc2cc(OCc3cccc(C#N)c3)c(CN3CCC(O)C3)cc2Cl)cccc1-c1ccccc1 (stereo not drawn),7.00 to 8.00
12,Cc1c(COc2cc(OCc3cccc(C#N)c3)c(CN[C@H](C(=O)O)[C@H](C)O)cc2Cl)cccc1-c1ccccc1,7.85
13,Cc1c(/C=C/C(=O)c2cc(CN3CCN(c4cccc([N+](=O)[O-])c4)CC3)ccc2O)cccc1-c1ccc2c(c1)OCCO2,4.71
14,CC(=O)N1CCN(Cc2ccc3oc(-c4cccc(-c5ccccc5)c4C)cc(=O)c3c2)CC1,< 5.00
15,Cc1c(COc2cc(OCc3cccc(C#N)c3)c(CN[C@H](C(=O)O)[C@@H](C)O)cc2Cl)cccc1-c1ccccc1,8.05
16,Cc1c(COc2cc(OCc3cccc(C#N)c3)c(CN3CCN(C(C)C)CC3)cc2Cl)cccc1-c1ccc2c(c1)OCCO2,< 6.00
17,CC(=O)N1CCN(Cc2ccc(O)c(C(=O)/C=C/c3cccc(-c4ccccc4)c3F)c2)CC1,< 4.70
18,Cc1c(COc2cc(OCc3cccc(C#N)c3)c(CN3CC(O)C3)cc2Cl)cccc1-c1ccc2c(c1)OCCO2,7.52
19,Cc1c(COc2cc(OCc3cccc(C#N)c3)c(CN3CC(C(=O)O)C3)cc2Cl)cccc1-c1ccccc1,7.51
20,CC(=O)N1CCN(Cc2ccc3oc(-c4cccc(-c5ccc6c(c5)OCCO6)c4C)cc(=O)c3c2)CC1,< 5.00

row,Structure (SMILES),pIC50
1,Cc1c(COc2cc(OCc3cccc(C#N)c3)c(CN3CC(O)C(CO)C3)cc2Cl)cccc1-c1ccc2c(c1)OCCO2 (stereo not drawn),7.78
2,Cc1c(COc2cc(OCc3cccc(C#N)c3)c(CN3CC(C)(O)C3)cc2Cl)cccc1-c1ccccc1,< 7.00
3,CCN1CCN(Cc2ccc3oc(-c4cccc(-c5ccccc5)c4C)cc(=O)c3c2)CC1,< 5.00
4,Cc1c(COc2cc(OCc3cccc(C#N)c3)c(CN3C[C@H](O)[C@@H](F)C3)cc2Cl)cccc1-c1ccccc1,< 7.00
5,Cc1c(COc2cc(OCc3cccc(C#N)c3)c(CN[C@@H](CO)C(=O)O)cc2Cl)cccc1-c1ccncc1,< 7.00
6,Cc1c(COc2cc(OCc3cccc(C#N)c3)c(CN3CC[C@@H](C(=O)O)C3)cc2Cl)cccc1-c1ccccc1,7.00 to 8.00
7,COc1cc2c(c(O)c1CC=C(C)C)C(=O)C[C@@H](c1ccc(O)cc1)O2,4.02
8,O=c1cc(-c2ccc(O)cc2)oc2cc(O[C@@H]3O[C@H](CO)[C@@H](O)[C@H](O)[C@H]3O[C@@H]3OC[C@](O)(CO)[C@H]3O)cc(O)c12 [APIIN],< 4.00
9,Cc1c(COc2cc(OCc3cccc(C#N)c3)c(CN3CC(C(=O)O)C3)cc2Cl)cccc1-c1ccc2c(c1)OCCO2,7.84
10,Cc1c(COc2cc(OCc3cccc(C#N)c3)c(CN3CC[C@@H](C(=O)O)C3)cc2Cl)cccc1-c1ccc2c(c1)OCCO2,7.82
11,Cc1c(COc2ccc3cc(CNCCN)ccc3c2)cccc1-c1ccccc1,< 5.00
12,Cc1c(COc2cc(OCc3cccc(C#N)c3)c(CNCCN(C)C)cc2Cl)cccc1-c1ccc2c(c1)OCCO2,7.58
13,Cc1c(COc2cc(OCc3cccc(C#N)c3)c(CN[C@H](CO)C(=O)O)cc2Cl)cccc1-c1ccncc1,< 7.00
14,Cc1c(COc2ccc3cc(CN4C[C@@H](O)C[C@H]4C(=O)O)ccc3c2)cccc1-c1ccccc1,< 5.00
15,CCN1CCN(Cc2cc(Cl)c(OCc3cccc(-c4ccc5c(c4)OCCO5)c3C)cc2OCc2cccc(C#N)c2)CC1,6.15
16,Cc1c(COc2cc(OCc3cccc(C#N)c3)c(CN3CC(C)(O)C3)cc2Cl)cccc1-c1ccc2c(c1)OCCO2,7.00 to 8.00
17,Cc1c(COc2cc(OCc3cccc(C#N)c3)c(CNCCN)cc2Cl)cccc1-c1ccc2c(c1)OCCO2,< 7.00
18,Cc1c(COc2cc(OCc3cccc(C#N)c3)c(CN3CC[C@@H](O)C3)cc2Cl)cccc1-c1ccccc1,7.00 to 8.00

# From ChEMBL document CHEMBL4619786, “Discovery of Novel Resorcinol Dibenzyl Ethers Targeting the Programmed Cell Death-1/Programmed Cell Death-Ligand 1 Interaction as Potential Anticancer Agents” (J Med Chem, 2020)
